One test deals with CT26 tumor cells. The test is described as follows: CT26 syngeneic mouse tumor model (survival and tumor volume). Type of test: in vivo. The conditions noted are these: for Median Survival: CT26 tumor bearing BALB/cJ mice, PF-06952229 30 mg/kg PO BID 7 days on/7 off, palbociclib 10 mg/kg PO BID, PF-06873600 50 mg/kg PO BID, survival endpoint tumor volume 2000 mm^3. As for the experimental part:
CT26 cells were obtained from American Type Culture Collection (ATCC) and cultured in Roswell Park Memorial Institute (RPM11640) supplemented with 10% fetal bovine serum (FBS). All cells were maintained in a humidified incubator at 37° C. with 5% carbon dioxide (CO2). Female Balb/cJ mice were obtained from Jackson Laboratories at 8 weeks of age. To generate the syngeneic model, 0.25 million CT26 tumor cells were subcutaneously implanted into the right flank of female BALB/cJ mice. Tumor bearing mice were randomized into six treatment groups based on average tumor sizes of approximately 50 mm^3 per group, on Day 10 post tumor cell implantation. Study groups included vehicle, 30 mg/kg PF-06952229, 10 mg/kg PD-0332991 (Palbociclib), PF-06873600 (CDK 2/4/6 inhibitor), combination of PF-06952229 +PD-0332991 and combination of PF-06952229+PF-06873600. PF-06952229 was administered orally twice daily (BID) with 7 days on and 7 days off schedule. PD-0332991 or PF-06873600 was administered orally BID continuously, until the end of the study.
Tumor volumes were measured three times a week. Tumor volume was calculated based on two dimensional caliper measurement with cubic millimeter volume calculated using the formula (length×width2)×0.5. Mice were sacrificed when the tumor volumes reached 2000 mm^3, which was the survival endpoint for this study. Survival curves were plotted using GraphPad Prism 7 software. Statistical analyses were performed using the Log-rank (Mantel-Cox) test.

The next test concerns pS807/811 Rb. The test is described as follows: Phospho-Rb Ser807/811 Bioassay of MCF7 xenograft tumor lysates. As to conditions: tumor samples Day 21 post-treatment initiation; result in words.
A further test deals with pSMAD2. The test is described as follows: pSMAD2 Bioassay of MCF7 xenograft tumor samples. Format: in vivo, human. As to conditions: tumor samples Day 21 post-treatment initiation; result in words. As for the experimental part:
pSMAD2 Bioassay: Tumor samples were collected and snap-frozen in 2.0 mL cryogenic tubes (Nalgene™) prior to analysis. Thawed tumor samples were homogenized in cell extraction buffer (Invitrogen, Carlsbad, Calif.) with addition of protease and phosphatase inhibitors. Tumor lysates were centrifuged to pellet insoluble debris, and the clarified supernatants were transferred to new tubes. pSmad2 was measured using a 6-Plex TGFbeta Signaling Magnetic Bead Kit (Millipore, Burlington, Mass.). All assays were carried out at room temperature. After blocking a 96-well black round-bottom plate with assay buffer for 10 minutes, 25 μL of the working microsphere bead mixture (beads were diluted to 1× with assay buffer from kit) and 25 μL of 1:10 diluted tumor lysate (1:10 dilution with assay buffer) were added to the plate. […] After washing, the beads were resuspended in 150 μL/well of sheath fluid (Bio-Rad catalog # 171-000055) and analyzed using a Bio-Plex 200 analyzer (Bio-Rad, Hercules Calif.). The mean fluorescence intensity (MFI) from each well was determined using Bio-Plex Manager Software, version 6.1 (Bio-Rad). […]
Total Smad2 Bioassay: PathScan Total Smad2 Sandwich ELISA Kit (Cell signaling, Catolog #7244C) was used to determine the total Smad2 protein according to manufacturer's instructions. […] The absorbance of the samples at 450 nm was measured on a Spectramax plate reader (Molecular Devices).

For test [1], the system named is MCF7 human ER+ breast cancer cells. Briefly: MCF7 human ER+ xenograft mouse tumor model (tumor volume). Type of test: in vivo. The conditions noted are these: NSG mice; Day 21 post-treatment initiation; PF-06952229 30 mg/kg PO BID 7 on/7 off, PD-0332991 10 mg/kg PO BID, PF-05279929 10 mg/kg SC twice per week; result in words. As for the experimental part: MCF7 human ER^+ breast cancer cells were obtained from American Type Culture
Collection (ATCC) and cultured in Roswell Park Memorial Institute (RPMI1640) supplemented with 10% fetal bovine serum (FBS). All cells were maintained in a humidified incubator at 37° C. with 5% carbon dioxide (CO2). Female NSG mice were obtained from Jackson Laboratories at 7 weeks of age. To generate the xenograft model, 17β-ESTRADIOL pellets (0.36 mg, 90-day release) were subcutaneously implanted into the left flank of female NSG mice, 7 days before the tumor cell implantation. Then 5 million MCF7 cancer cells were subcutaneously implanted into the right axial region of female NSG mice. Tumor-bearing mice were randomized into treatment groups based on average tumor sizes of approximately 180 mm^3, on Day 27 post-tumor cell implantation, and treatments were initiated. […]
Tumor volumes were measured two times a week. Tumor volume was calculated based on two-dimensional caliper measurement with cubic millimeter volume calculated using the formula (length×width^2)×0.5. Body weights were measured two times a week. […] Comparisons of treated groups to control group or to other treated groups are made using a t statistic under the ANCOVA model with fold change and the associated 95% confidence interval calculated.

For the compound `C[C@@]1(O)CCC[C@H]1n1c(=O)c(C(F)F)cc2cnc(NC3CCN(S(C)(=O)=O)CC3)nc21` [PF-06873600], the “Median Survival” value in the test on CT26 tumor cells came to 26.5 days.

As for `CC(C)c1cnc(-c2cc(Cl)ccc2F)cc1Nc1ccncc1C(=O)NC(CO)CO` [PF-06952229, 4-(2-(5-chloro-2-fluorophenyl)-5-isopropylpyridin-4-ylamino)-N-(1,3-dihydroxypropan-2-yl)nicotinamide], the “Median Survival” value with CT26 tumor cells amounted to 24 days. The Tumor growth inhibition entry was “did not significantly inhibit tumor growth” in the test with CT26 tumor cells (Day 17 post-treatment initiation, result in words) and “did not significantly inhibit tumor growth” in test [1]. In addition, in the test with CT26 tumor cells (Day 40 post-treatment initiation, result in words), the Survival result is on record as “did not significantly increase survival”. Moreover, the “pS807/811 Rb levels” value in the test with pS807/811 Rb is reported as “slight increase”. In the test on pSMAD2, the “Inhibition of pSMAD2” value is reported as “significant inhibition of pSMAD2”.

In the case of `CC(=O)c1c(C)c2cnc(Nc3ccc(N4CCNCC4)cn3)nc2n(C2CCCC2)c1=O` [Palbociclib, 6-acetyl-8-cyclopentyl-5-methyl-2-(5-piperazin-1-yl-pyridin-2-ylamino)-8H-pyrido[2,3-d]pyrimidin-7-one, reference compound], in the test with CT26 tumor cells, the “Median Survival” value was determined as 26.5 days. In addition, the “pS807/811 Rb levels” value in the test on pS807/811 Rb is given as “slight decrease”.

The values above are taken from patent publication US20210346384A1, “COMBINATIONS OF TGF-BETA INHIBITORS AND CDK INHIBITORS FOR CANCER TREATMENTS” (PFIZER INC., priority 2018, published 2021).
